According to paper PMC11643494, “Structure–Activity Relationship Studies in a Series of 2-Aryloxy-N-(pyrimidin-5-yl)acetamide Inhibitors of SLACK Potassium Channels” (Molecules, 2024):

Molecular target: T1, Human A934T SLACK (Homo sapiens, UniProt Q5JUK3, A915T)
T1 construct: host or cells: CHO-K1
T1 sequence (Q5JUK3 1-1235 isoform Q5JUK3-3 A934T): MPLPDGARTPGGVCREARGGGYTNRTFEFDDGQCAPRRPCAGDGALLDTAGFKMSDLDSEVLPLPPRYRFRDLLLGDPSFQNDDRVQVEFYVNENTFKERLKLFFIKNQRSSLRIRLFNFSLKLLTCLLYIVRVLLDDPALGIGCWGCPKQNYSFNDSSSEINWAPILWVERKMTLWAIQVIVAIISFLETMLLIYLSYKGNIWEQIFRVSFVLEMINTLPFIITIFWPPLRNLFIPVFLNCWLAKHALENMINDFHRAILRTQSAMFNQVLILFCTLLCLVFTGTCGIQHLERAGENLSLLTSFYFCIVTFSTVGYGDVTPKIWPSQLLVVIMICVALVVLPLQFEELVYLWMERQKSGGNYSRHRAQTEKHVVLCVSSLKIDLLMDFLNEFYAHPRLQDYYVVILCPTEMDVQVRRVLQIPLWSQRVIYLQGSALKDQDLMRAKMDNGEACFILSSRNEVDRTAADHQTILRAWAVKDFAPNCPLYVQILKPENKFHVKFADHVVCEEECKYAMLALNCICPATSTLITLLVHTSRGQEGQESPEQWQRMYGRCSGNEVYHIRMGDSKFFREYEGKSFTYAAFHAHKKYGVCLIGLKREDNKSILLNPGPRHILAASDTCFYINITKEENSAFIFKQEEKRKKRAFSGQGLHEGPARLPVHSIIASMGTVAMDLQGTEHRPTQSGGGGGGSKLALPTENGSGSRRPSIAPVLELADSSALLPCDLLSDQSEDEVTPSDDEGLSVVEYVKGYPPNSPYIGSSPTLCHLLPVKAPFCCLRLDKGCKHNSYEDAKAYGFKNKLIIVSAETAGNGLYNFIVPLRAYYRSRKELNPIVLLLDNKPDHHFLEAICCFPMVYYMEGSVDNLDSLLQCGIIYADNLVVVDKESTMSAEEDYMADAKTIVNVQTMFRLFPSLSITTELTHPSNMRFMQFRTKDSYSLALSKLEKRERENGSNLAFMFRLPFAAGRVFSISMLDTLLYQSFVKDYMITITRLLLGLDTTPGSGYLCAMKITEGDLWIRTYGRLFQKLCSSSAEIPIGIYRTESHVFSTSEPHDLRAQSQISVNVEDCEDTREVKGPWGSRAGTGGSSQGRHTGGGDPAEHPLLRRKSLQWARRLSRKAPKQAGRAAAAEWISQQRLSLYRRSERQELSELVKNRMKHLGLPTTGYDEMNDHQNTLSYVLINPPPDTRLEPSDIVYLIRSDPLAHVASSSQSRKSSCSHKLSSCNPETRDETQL
Assay: Whole-cell APC in CHO-K1 cells stably expressing human A934T SLACK
Type: cell-based
Details: for IC50: APC, CHO-K1 cells; for Imax: maximum inhibition at 30 µM standardized to VU0606170 (set at 100%)
Description: Finally, we chose to screen the same two compounds versus mouse SLACK and two clinically relevant GOF SLACK mutants in APC assays utilizing CHO-K1 cells stably expressing these targets (Table 7). Screening versus the mouse homolog was deemed important for evaluating the potential of the series to ultimately lead to a useful in vivo tool via further optimization.
Stably transfected monoclonal HEK293 cell lines expressing SLICK, Maxi-K α1/β3, Maxi-K α1/β4, CaV3.2, GIRK 1/2, KV2.1, KV7.2, NaV1.7, and TASK-1 were generated as previously described. Stably transfected monoclonal HEK293 cell lines expressing hERG were generated as previously described. CHO-K1 cells expressing human SLACK and disease-associated human SLACK mutations, G288S and A934T, were generated by transfecting a PiggyBac TRE mammalian expression vector (VectorBuilder, Chicago, IL, USA) containing KCNT1. FuGENE 6 (Promega, Madison, WI, USA) transfection reagent and protocol, together with Opti-MEM (Thermo Fisher Scientific, Waltham, MA, USA), were utilized according to the manufacturer’s instructions.
Automated patch clamp recording was performed with a SyncroPatch 768 PE system (Nanion, Munich, Germany) as previously described. Whole-cell recordings were performed at room temperature. Cells were harvested by first washing with PBS without Mg^2+ or Ca^2+ (Gibco, Billings, MT, USA) to remove cell culture medium, followed by dissociation with TryPLE (Gibco, Billings, MT, USA). Cells were then resuspended and diluted to 200,000 cells/mL in external solution. External solution contained 105 mM NaCl, 4 mM KCl, 1 mM MgCl2, 5 mM CaCl2, 10 mM HEPES, 40 mM N-Methyl-D-glucamine chloride, titrated to pH 7.4 with NaOH and osmolarity of 300 mOsm/kg; internal solution contained 70 mM NaCl, 70 mM KF, 10 mM KCl, 5 mM EGTA, 5mM HEPES, titrated to a pH 7.2 with KOH and osmolarity of 295 mOsm/kg.
The APC protocol was set as following: Cells were held at […] −80 mV for 100 ms, then a ramp protocol was performed from −100 mV to 80 mV at 0.4 mV/ms, hold the cell at −80 mV for another 100 ms, then steps were performed at −20 mV, 0 mV, +20 mV, +40 mV, and +60 mV for 100 ms of each step. Whole-cell currents were measured at 0 mV and normalized to current after external buffer addition.

Structure (SMILES)	IC50	Imax
CN(c1ccc(C#N)cc1)c1ncc(NC(=O)C(C)(C)Oc2ccc(Cl)cc2)cn1 [Analog 66]	1200 nM	84%
CC(C)(Oc1ccc(Cl)cc1)C(=O)Nc1cnc(Oc2c(F)cccc2F)nc1 [Analog 40]	410 nM	96%
